System: methane production in rumen fluid
Experiment: Rumen in vitro (RIV) assay, methane production from rumen fluid incubations
Format: cell-based, cattle
Conditions: for inhibition at 10 µM / inhibition at 50 µM / inhibition at 2 µM: Bos taurus, read-out: RIV % methane reduction +/− SD
Outline: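 Rumen fluid from two fistulated cattle diluted 12 ml in 48 ml buffer with ryegrass substrate, incubated in sealed bottles at 39° C for 24-48 h in duplicate. Inhibitors added in DMF (stocks 1000-fold above highest assay level); total gas, methane and H2 measured automatically; 30 μM BES positive control, no-inhibitor negative control.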

Compound | inhibition at 10 µM (10 μM) | further results
O=C(O)CCC(=O)N1N=C(c2ccc(-c3ccc(OC(F)(F)F)cc3F)cc2)CC1c1ccc2nccnc2c1 (stereo not drawn) [Compound 101, 4-(3-(2′-Fluoro-4′-(trifluoromethoxy)-[1,1′-biphenyl]-4-yl)-5-(quinoxalin-6-yl)-4,5-dihydro-1H-pyrazol-1-yl)-4-oxobutanoic acid] | 65.7 ± 2.9% | –
O=C(O)CCC(=O)N1N=C(c2ccc(-c3ccc(OC(F)(F)F)c(Cl)c3)cc2)CC1c1ccc2nccnc2c1 (stereo not drawn) [Compound 102, 4-(3-(3′-Chloro-4′-(trifluoromethoxy)-[1,1′-biphenyl]-4-yl)-5-(quinoxalin-6-yl)-4,5-dihydro-1H-pyrazol-1-yl)-4-oxobutanoic acid] | 52.8 ± 2.5% | –
O=C(O)CCC(=O)N1N=C(c2ccc(-c3ccc4c(c3)OCO4)cc2)CC1c1ccc2nccnc2c1 (stereo not drawn) [Compound 103, 4-(3-(4-(Benzo[d][1,3]dioxol-5-yl)phenyl)-5-(quinoxalin-6-yl)-4,5-dihydro-1H-pyrazol-1-yl)-4-oxobutanoic acid] | 24.8 ± 6.2% | –
O=C(O)CCC(=O)N1N=C(c2ccc(-c3ccc4c(c3)OC(F)(F)O4)cc2)CC1c1ccc2nccnc2c1 (stereo not drawn) [Compound 104, 4-(3-(4-(2,2-Difluorobenzo[d][1,3]dioxol-5-yl)phenyl)-5-(quinoxalin-6-yl)-4,5-dihydro-1H-pyrazol-1-yl)-4-oxobutanoic acid] | 41.9 ± 8.9% | –
O=C(O)CCC(=O)N1N=C(c2ccc(-c3ccc4[nH]ccc4c3)cc2)CC1c1ccc2nccnc2c1 (stereo not drawn) [Compound 106, 4-(3-(4-(1H-Indol-5-yl)phenyl)-5-(quinoxalin-6-yl)-4,5-dihydro-1H-pyrazol-1-yl)-4-oxobutanoic acid] | < 5% | inhibition at 50 µM (50 μM): 26 ± 2.5%
CC(C)Oc1ccc(-c2ccc(C3=NN(C(=O)CCC(=O)O)C(c4ccc5nccnc5c4)C3)cc2)cn1 (stereo not drawn) [Compound 107, 4-(3-(4-(6-Isopropoxypyridin-3-yl)phenyl)-5-(quinoxalin-6-yl)-4,5-dihydro-1H-pyrazol-1-yl)-4-oxobutanoic acid] | 33.4 ± 2.1% | –
O=C(O)CCC(=O)N1N=C(c2ccc(-c3ccoc3)cc2)CC1c1ccc2nccnc2c1 (stereo not drawn) [Compound 108, 4-(3-(4-(Furan-3-yl)phenyl)-5-(quinoxalin-6-yl)-4,5-dihydro-1H-pyrazol-1-yl)-4-oxobutanoic acid] | 6.3 ± 6.1% | inhibition at 50 µM (50 μM): 48.3 ± 2.8%
O=C(O)CCC(=O)N1N=C(c2ccc(-c3ccccc3)cc2F)CC1c1ccc2nccnc2c1 (stereo not drawn) [Compound 109, 4-(3-(3-Fluoro-[1,1′-biphenyl]-4-yl)-5-(quinoxalin-6-yl)-4,5-dihydro-1H-pyrazol-1-yl)-4-oxobutanoic acid] | 40.4 ± 8.1% | –
O=C(O)CCC(=O)N1N=C(c2ccc(-c3ccccc3)c(F)c2)CC1c1ccc2nccnc2c1 (stereo not drawn) [Compound 110, 4-(3-(2-Fluoro-[1,1′-biphenyl]-4-yl)-5-(quinoxalin-6-yl)-4,5-dihydro-1H-pyrazol-1-yl)-4-oxobutanoic acid] | 40.4 ± 7.6% | –
O=C(O)CCC(=O)N1N=C(c2ccc(-c3ccccc3)cc2)CC1c1ccc2nonc2c1 (stereo not drawn) [Compound 111, 4-(3-([1,1′-Biphenyl]-4-yl)-5-(benzo[c][1,2,5]oxadiazol-5-yl)-4,5-dihydro-1H-pyrazol-1-yl)-4-oxobutanoic acid] | 43.3 ± 9% | –
O=C(O)CCC(=O)N1N=C(c2ccc(Cl)cc2)CC1c1ccc(F)c(F)c1 (stereo not drawn) [Compound 112, 4-(3-(4-Chlorophenyl)-5-(3,4-difluorophenyl)-4,5-dihydro-1H-pyrazol-1-yl)-4-oxobutanoic acid] | – | inhibition at 50 µM (50 μM): 21.7 ± 0.9%
NC(=O)CCC(=O)N1N=C(c2ccc(Cl)cc2)CC1c1ccc2nccnc2c1 (stereo not drawn) [Compound 113, 4-(3-(4-Chlorophenyl)-5-(quinoxalin-6-yl)-4,5-dihydro-1H-pyrazol-1-yl)-4-oxobutanamide] | – | inhibition at 50 µM (50 μM): 15.6 ± 0.4%
O=C(O)c1cccc(N2N=C(c3cccc(-c4ccccc4)c3)CC2c2ccc3nccnc3c2)c1 (stereo not drawn) [Compound 114, 3-(3-([1,1′-Biphenyl]-3-yl)-5-(quinoxalin-6-yl)-4,5-dihydro-1H-pyrazol-1-yl)benzoic acid] | 58.3 ± 16.6% | –
O=C(O)c1ccc(N2N=C(c3ccc(Cl)cc3)CC2c2ccc3nccnc3c2)cc1 (stereo not drawn) [Compound 115, 4-(3-(4-Chlorophenyl)-5-(quinoxalin-6-yl)-4,5-dihydro-1H-pyrazol-1-yl)benzoic acid] | 20.1 ± 1.1% | inhibition at 50 µM (50 μM): 84 ± 10.6%
CS(=O)(=O)NC(=O)CCC(=O)N1N=C(c2ccc(OC(F)(F)F)cc2)CC1c1ccc2nccnc2c1 (stereo not drawn) [Compound 116, N-(Methylsulfonyl)-4-oxo-4-(5-(quinoxalin-6-yl)-3-(4-(trifluoromethoxy)phenyl)-4,5-dihydro-1H-pyrazol-1-yl) butanamide] | – | RIV % methane reduction +/− SD (2 μM): <5%; RIV % methane reduction +/− SD (10 μM): 72.4 ± 10.6%; RIV % methane reduction +/− SD (50 μM): 93.9 ± 4.7%
CC(C)Oc1ccc(-c2ccc(C3=NN(C(=O)CCC(=O)NS(C)(=O)=O)C(c4ccc5nccnc5c4)C3)cc2)cc1 (stereo not drawn) [Compound 117, 4-(3-(4′-Isopropoxy-[1,1′-biphenyl]-4-yl)-5-(quinoxalin-6-yl)-4,5-dihydro-1H-pyrazol-1-yl)-N-(methylsulfonyl)-4-oxobutanamide] | 72.5 ± 4% | inhibition at 2 µM (2 μM): 9.1 ± 2.4%
CC(C)S(=O)(=O)NC(=O)CCC(=O)N1N=C(c2ccc(OC(F)(F)F)cc2)CC1c1ccc2nccnc2c1 (stereo not drawn) [Compound 118, N-(Isopropylsulfonyl)-4-oxo-4-(5-(quinoxalin-6-yl)-3-(4-(trifluoromethoxy)phenyl)-4,5-dihydro-1H-pyrazol-1-yl) butanamide] | 29.7 ± 6% | –
CC(C)S(=O)(=O)NC(=O)CCC(=O)N1N=C(c2cccc(-c3ccccc3)c2)CC1c1ccc2nccnc2c1 (stereo not drawn) [Compound 119, 4-(3-([1,1′-Biphenyl]-3-yl)-5-(quinoxalin-6-yl)-4,5-dihydro-1H-pyrazol-1-yl)-N-(isopropylsulfonyl)-4-oxobutanamide] | 81.8 ± 2.7% | inhibition at 2 µM (2 μM): 11.9 ± 2.7%
CC(C)Oc1ccc(-c2ccc(C3=NN(C(=O)CCC(=O)NS(=O)(=O)C(C)C)C(c4ccc5nccnc5c4)C3)cc2)cc1 (stereo not drawn) [Compound 120, 4-(3-(4′-Isopropoxy-[1,1′-biphenyl]-4-yl)-5-(quinoxalin-6-yl)-4,5-dihydro-1H-pyrazol-1-yl)-N-(isopropylsulfonyl)-4-oxobutanamide] | 70.4 ± 5.5% | inhibition at 2 µM (2 μM): 12.6 ± 1.4%
CC(C)(C)S(=O)(=O)NC(=O)CCC(=O)N1N=C(c2ccc(Cl)cc2)CC1c1ccc2nccnc2c1 (stereo not drawn) [Compound 121, N-(tert-Butylsulfonyl)-4-(3-(4-chlorophenyl)-5-(quinoxalin-6-yl)-4,5-dihydro-1H-pyrazol-1-yl)-4-oxobutanamide] | 9.8 ± 2.2% | –
O=C(CCC(=O)N1N=C(c2cccc(-c3ccccc3)c2)CC1c1ccc2nccnc2c1)NS(=O)(=O)c1ccccc1 (stereo not drawn) [Compound 122, 4-(3-([1,1′-Biphenyl]-3-yl)-5-(quinoxalin-6-yl)-4,5-dihydro-1H-pyrazol-1-yl)-4-oxo-N-(phenylsulfonyl) butanamide] | 78.9 ± 2.3% | inhibition at 2 µM (2 μM): 7.4 ± 4.7%
O=C(CCC(=O)N1N=C(c2ccc(-c3ccccc3)cc2)CC1c1ccc2nccnc2c1)NS(=O)(=O)c1ccccc1 (stereo not drawn) [Compound 123, 4-(3-([1,1′-Biphenyl]-4-yl)-5-(quinoxalin-6-yl)-4,5-dihydro-1H-pyrazol-1-yl)-4-oxo-N-(phenylsulfonyl) butanamide] | 77 ± 4.2% | inhibition at 2 µM (2 μM): 7.4 ± 0.7%
Cc1ccccc1S(=O)(=O)NC(=O)CCC(=O)N1N=C(c2ccc(Cl)cc2)CC1c1ccc2nccnc2c1 (stereo not drawn) [Compound 124, 4-(3-(4-Chlorophenyl)-5-(quinoxalin-6-yl)-4,5-dihydro-1H-pyrazol-1-yl)-4-oxo-N-(o-tolylsulfonyl) butanamide] | 12.7 ± 0.8% | –
Cc1ccc(S(=O)(=O)NC(=O)CCC(=O)N2N=C(c3ccc(Cl)cc3)CC2c2ccc3nccnc3c2)cc1 (stereo not drawn) [Compound 125, 4-(3-(4-Chlorophenyl)-5-(quinoxalin-6-yl)-4,5-dihydro-1H-pyrazol-1-yl)-4-oxo-N-tosylbutanamide] | 21.8 ± 5.7% | –
CN(C)S(=O)(=O)NC(=O)CCC(=O)N1N=C(c2ccc(OC(F)(F)F)cc2)CC1c1ccc2nccnc2c1 (stereo not drawn) [Compound 126, N—(N,N-Dimethylsulfamoyl)-4-oxo-4-(5-(quinoxalin-6-yl)-3-(4-(trifluoromethoxy)phenyl)-4,5-dihydro-1H-pyrazol-1-yl) butanamide] | 25.5 ± 3.8% | –
CN(C)S(=O)(=O)NC(=O)CCC(=O)N1N=C(c2cccc(-c3ccccc3)c2)CC1c1ccc2nccnc2c1 (stereo not drawn) [Compound 127, 4-(3-([1,1′-Biphenyl]-3-yl)-5-(quinoxalin-6-yl)-4,5-dihydro-1H-pyrazol-1-yl)-N—(N,N-dimethylsulfamoyl)-4-oxobutanamide] | 84.1 ± 3% | inhibition at 2 µM (2 μM): 16.8 ± 0.7%
O=C(CCC(=O)N1N=C(c2ccc(Cl)cc2)CC1c1ccc2nccnc2c1)NS(=O)(=O)N1CCCC1 (stereo not drawn) [Compound 128, 4-(3-(4-Chlorophenyl)-5-(quinoxalin-6-yl)-4,5-dihydro-1H-pyrazol-1-yl)-4-oxo-N-(pyrrolidin-1-ylsulfonyl) butanamide] | 53 ± 5.7% | –
O=C(O)CCC(=O)N1N=C2c3cccc(-c4ccccc4)c3CCC2C1c1ccc2nccnc2c1 (stereo not drawn) [Compound 129, 4-Oxo-4-(6-phenyl-3-(quinoxalin-6-yl)-3,3a,4,5-tetrahydro-2H-benzo[g]indazol-2-yl)butanoic acid] | 42.5 ± 15.8% | –
